Columns and labels:
[1] = system: cortical neurones in the presence of astrocytes in culture; assay: Prior cytotoxicity, microscopic observation after 48 hours; type: cell-based; details: 100 μM, 48 hours incubation
Experimental: (§1) • Cell type: Initial culture of cortical neurones from 14 day rat embryos and initial culture of cortical astrocytes from newborn rats. • Culture medium: DMEM-Ham F12 (Invitrogen 21331020) • B27 2% (invitrogen 17504044) • L-glutamine 2 mM (Invitrogen 25030024) • Penicillin 50 UI/ml—Streptomycin 50 μg/ml (Invitrogen 15070063) • Nerve Growth Factor 10 ng/ml (NGF, Invitrogen 13290.010) • Survival medium: MEM (Invitrogen 21090022) • L-glutamine 2 mM (Invitrogen 25030024) • Penicillin 50 UI/ml—Streptomycin 50 μg/ml (Invitrogen 15070063) • Supplement N2 (Invitrogen 17502-048) 1.2 Prior Cytotoxicity • Platelets: 96 wells • Culture time: 8 days • Cells/well: cortical neurones+astrocytes • Product range: from 100 μM then ratio 3 • Replicates: 3 • Cell/product contact: 48 hours • Evaluation parameters: microscopic observation and MTT hydrolysis. • MTT: 3-(4,5-dimethylthiozol-2-yl)-2,5-diphenyltetrazolium bromide 1.3 Treatment and Analysis of the Network of Extensions Marked with Antineurofilament Antibody
A first experiment was carried out (conventional test used to measure the level of cell survival) in order to investigate the cytotoxicity of etifoxine in relation to cortical neurones in the presence of astrocytes in culture and thus to determine the maximum non-toxic concentration of etifoxine.

[2] = system: mixed cultures of rat cortical neurones and astrocytes; assay: Density of neuritic extensions marked by anti-neurofilament antibody, with or without excess glutamate; type: cell-based
Text: The principle of the investigation consisted of evaluating the survival of cortical neurones in co-culture with astrocytes after the application of a neurotoxic agent, excess glutamate.
Neurone survival is quantified by the density of the system of neuritic extensions marked by an anti-neurofilament antibody in the absence or presence of glutamate.
as §1
The cortical neurones were obtained from the cortex of 14 day rat embryos cultured in platelet culture medium 96 and then in a stove at 37° C. and 5% CO2 with saturated humidity. After 2 days culture astrocytes obtained from newborn rat cortex were seeded in the wells (in a ratio of 1 astrocyte to 4 neurones). After 10 days culture the mature neurones synthesised neurofilaments (structural protein specific to mature neurones); in addition to this these neurones expressed functional receptors to glutamate on their surfaces and could therefore be intoxicated.
On the 12th day of culture the medium was replaced by survival medium with or without etifoxine in 3 concentrations and the neurones were or were not intoxicated with glutamate (Sigma G1501) at a strength of 2 mM and 10 mM. Each culture condition was applied to 4 wells. The cultures were incubated for 2 periods (6 and 24 hours).
A positive control was carried out in the survival culture medium containing Nerve Growth Factor (NGF; 10 ng/ml) and basic Fibroblast Growth Factor (FGFb; 5 ng/ml) and the cells were intoxicated under the same conditions.
At the end of the two incubation periods (6 and 24 hours) the cell layers were fixed and marked with a anti-68- and 200 kD neurofilament monoclonal antibody (DAKO M0762) and then developed using a mouse anti-immunoglobulin goat antibody conjugate Alexia fluor 488 (Interchim A-11029). Controls without primary antibody were performed. All the controls were negative (no non-specific labelling). After extensive washing with PBS the preparations were observed under epi-fluorescence (Nikon Diaphot 300 microscope).
2 images were obtained for each culture well (4 wells per experimental condition) using a Nikon DXM1200F camera controlled by LUCIA 6.0 software.
All the images were obtained under the same conditions and with identical camera settings.
The densities of the networks of extensions marked with anti-neurofilament antibody were examined using LUCIA 6.0 software. Initial image processing made it possible to increase the intensity of the specific marking on the extensions. Areas in which marking was positive were binarised and the percentage marking per image was determined (marked surface area/total surface area examined).
The results (mean values±standard error with respect to the mean (SEM) were expressed as percentage marking per microscope field (n=8 measurements/culture conditions). 2-factor analysis of variance (Etifoxine and glutamate), followed by the Student Newman-Keuls multiple comparisons test was used for statistical comparison of the results. […]

[3] = system: mice subjected to hypobaric hypoxia; assay: Hypobaric hypoxia in mice (survival time); type: in vivo, NMRI male mice; details: for Percentage variation / Survival time in seconds (m ± sem): Table 4: mice, hypobaric hypoxia 160 mmHg
Experimental: 1.1 Hypobaric Hypoxia in Mice
NMRI male mice from Janvier weighing between 25 and 30 grams were used after acclimatisation in the animal house for at least 7 days (t°=22±2° C.; humidity 50±20%; feed UAR “A04” SAFE (Augy, France) and tap water ad libitum; 12 hour night and day cycle (light from 7 a.m. to 7 p.m.).
The unfasting […] were distributed at random into lots of 10.
The protocol of Nakaniski et al. (1973) Life Sciences, 13, 467-474 was adapted for the purposes of the model.
Each mouse was placed in a dessicator (hermetically sealed enclosure) in which atmospheric pressure was reduced from 760 to 160 mmHg using a water pump. This pressure reduction was carried out in one minute and caused death of the control animals in approximately 1 minute.
The survival time of the animal, which corresponded to the difference between the time to death of the mouse assessed by respiratory arrest less the time required to induce the hypoxia was then noted.
The products under investigation were administered intraperitoneally (i.p.) (0.1 ml/10 g), 30 minutes before inducing hypobaric hypoxia, or orally (0.1 ml/10 g p.o.) 1 hour before hypoxia.
Etifoxine hydrochloride was dissolved in 1% Tween 80. The potassium cyanide (Merck) was dissolved in 0.9% NaCl.
The statistical test used was a one-factor analysis of variance to determine the treated groups, which differed from the control group receiving the vehicle, at a threshold of 5%.

[4] = system: rats subjected to histotoxic hypoxia induced by potassium cyanide; assay: KCN (i.v.) hypoxia in rats (survival time); type: in vivo, Wistar male rats; details: for Percentage variation / Survival time in seconds (m ± sem): Table 5: rats, KCN 4 mg/kg i.p. (so in the source)
[5] = system: mixed cultures of rat cortical neurones and astrocytes; assay: Density of neuritic extensions marked by anti-neurofilament antibody, with or without excess glutamate; type: cell-based; details: 10 μM of glutamate (so in the source), 6 hours, compound 1, 3 and 10 μM

Compound: CC1(c2ccccc2)OC(N)=Nc2ccc(Cl)cc21 (stereo not shown) [desethyl-etifoxine, 2-amino-6-chloro-4-methyl-4-phenyl-4H-[3,1]benzoxazine]
- astrocyte mortality, visual examination with a microscope [1]: astrocyte mortality was observed
- density of marked neurofilaments ([2]; control culture medium (without glutamate), 6 hours, significant at 10 μM): increased the density of labelled neurofilaments in a statistically significant way
- density of neurofilaments in the presence of glutamate ([2]; glutamate 2 mM, 6 hours, only 10 μM of compound): opposes the effect of glutamate
- Percentage variation ([3]; i.p. dose 30): +34%
- Survival time in seconds (m ± sem) ([3]; i.p. dose 30): 71.7 ± 4.8 s
- Percentage variation ([3]; i.p. dose 50): +32%
- Survival time in seconds (m ± sem) ([3]; i.p. dose 50): 70.7 ± 4.3 s
- Percentage variation ([3]; i.p. dose 75): +30%
- Survival time in seconds (m ± sem) ([3]; i.p. dose 75): 69.8 ± 2.7 s
- Percentage variation ([3]; p.o. dose 100): +45%
- Survival time in seconds (m ± sem) ([3]; p.o. dose 100): 61.0 ± 2.6 s
- Percentage variation ([3]; p.o. dose 200): +126%
- Survival time in seconds (m ± sem) ([3]; p.o. dose 200): 94.9 ± 9.9 s
- Percentage variation ([3]; p.o. dose 300): +126%
- Survival time in seconds (m ± sem) ([3]; p.o. dose 300): 94.8 ± 11.2 s
- survival time ([3]; mice, hypobaric hypoxia, oral administration from 200 mg/kg): significant increase in survival time
- anti-hypoxic activity ([3]; mice, hypobaric hypoxia, over 30 mg/kg i.p.): showed anti-hypoxic activity
- Percentage variation ([4]; compound i.p. dose 30): −4%
- Survival time in seconds (m ± sem) ([4]; compound i.p. dose 30): 55.0 ± 1.5 s
- Percentage variation ([4]; compound i.p. dose 50): −3%
- Survival time in seconds (m ± sem) ([4]; compound i.p. dose 50): 55.6 ± 1.5 s
- Percentage variation ([4]; compound i.p. dose 75): +27%
- Survival time in seconds (m ± sem) ([4]; compound i.p. dose 75): 72.7 ± 5.5 s
- Percentage variation ([4]; compound p.o. dose 50): +3%
- Survival time in seconds (m ± sem) ([4]; compound p.o. dose 50): 58.8 ± 1.9 s
- Percentage variation ([4]; compound p.o. dose 100): +42%
- Survival time in seconds (m ± sem) ([4]; compound p.o. dose 100): 81.3 ± 3.8 s
- Percentage variation ([4]; compound p.o. dose 200): +43%
- Survival time in seconds (m ± sem) ([4]; compound p.o. dose 200): 81.7 ± 4.1 s
- survival time ([4]; rats, KCN hypoxia, 75 mg/kg i.p.): increased survival time in a non-significant manner
- anti-hypoxic activity ([4]; rats, KCN hypoxia, over 100 mg/kg p.o.): showed anti-hypoxic activity
- density of marked neurofilaments in the presence of glutamate [5]: opposes the decrease in the density of marked neurofilaments

Compound: FGF: positive control: survival culture medium containing Nerve Growth Factor (NGF; 10 ng/ml) and basic Fibroblast Growth Factor (FGFb; 5 ng/ml)
- density of neurofilaments in the presence of glutamate ([2]; positive control NGF 10 ng/ml + FGFb 5 ng/ml, glutamate 2 mM, 24 hours): opposed the effects of 2 mM of glutamate
- density of neurofilaments in the presence of glutamate ([2]; positive control NGF 10 ng/ml + FGFb 5 ng/ml, glutamate 2 and 10 mM, 6 hours): opposed the decrease in density of neurofilaments induced by glutamate
